The source made the active and inactive calls. The rule behind the calls is not given here.
What was measured:
[1] = system: C2C12; experiment: Effect on AMPK in mouse C2C12 myotubes assessed as increase in AMPK-alpha phosphorylation at Thr172 at 1 mM measured after 1 hrs by western blot analysis; format: functional, cell-based
[2] = system: HEK293; experiment: Cytotoxicity against human HEK293 cells assessed as cell viability at 20 uM measured after 24 hrs by MTT assay; format: toxicity, cell-based; details: hek293, 24 h
[3] = target: T1, NAD-dependent protein deacetylase sirtuin-1 (Homo sapiens) (UniProt Q96EB6); experiment: Activation of SIRT1 (unknown origin) expressed in human HEK293 cells assessed as decrease in p53 transcriptional activity at 20 uM measured after 24 hrs by luciferase reporter gene assay; format: cell-based; details: filed as activator
T1 sequence (whole entry): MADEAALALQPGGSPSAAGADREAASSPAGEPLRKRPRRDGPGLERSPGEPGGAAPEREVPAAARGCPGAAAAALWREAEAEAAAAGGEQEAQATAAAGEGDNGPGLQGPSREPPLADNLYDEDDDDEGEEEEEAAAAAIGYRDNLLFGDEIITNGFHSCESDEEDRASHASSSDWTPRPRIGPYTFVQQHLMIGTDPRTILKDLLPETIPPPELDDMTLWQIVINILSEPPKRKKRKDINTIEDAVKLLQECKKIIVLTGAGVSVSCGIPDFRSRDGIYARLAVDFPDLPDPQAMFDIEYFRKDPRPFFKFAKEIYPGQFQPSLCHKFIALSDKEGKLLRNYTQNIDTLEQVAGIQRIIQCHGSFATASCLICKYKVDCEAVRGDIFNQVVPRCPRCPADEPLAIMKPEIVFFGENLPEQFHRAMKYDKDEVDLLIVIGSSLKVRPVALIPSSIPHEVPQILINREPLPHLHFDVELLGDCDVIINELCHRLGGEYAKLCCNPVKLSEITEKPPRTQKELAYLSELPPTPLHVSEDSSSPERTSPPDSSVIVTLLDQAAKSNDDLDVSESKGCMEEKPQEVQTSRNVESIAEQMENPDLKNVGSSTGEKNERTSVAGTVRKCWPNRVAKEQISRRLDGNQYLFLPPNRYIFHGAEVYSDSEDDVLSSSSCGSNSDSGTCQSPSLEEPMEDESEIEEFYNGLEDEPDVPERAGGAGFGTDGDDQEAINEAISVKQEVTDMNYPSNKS

[4] = target: T1, NAD-dependent protein deacetylase sirtuin-1 (Homo sapiens); experiment: Activation of SIRT1 (unknown origin) expressed in human HEK293 cells assessed as increase in NAD+/NADH ratio at 10 to 40 uM in presence of NAD+ as substrate incubated for 12 hrs by NAD+/NADH assay based fluorescence microplate reader; format: cell-based; details: filed as activator, dose 10-40 µM
[5] = target: T1, NAD-dependent protein deacetylase sirtuin-1 (Homo sapiens); experiment: Activation of SIRT1 (unknown origin) expressed in human HEK293 cells assessed as decrease in luciferase activity at 20 uM measured after 24 hrs by luciferase reporter gene assay; format: cell-based; details: filed as activator
[6] = target: T1, NAD-dependent protein deacetylase sirtuin-1 (Homo sapiens); experiment: Activation of SIRT1 (unknown origin) expressed in human HEK293 cells assessed as increase intracellular NAD+ level at 20 uM in presence of NAD+ as substrate incubated for 12 hrs by NAD+/NADH assay based fluorescence microplate reader; format: cell-based; details: filed as activator
[7] = target: T1, NAD-dependent protein deacetylase sirtuin-1 (Homo sapiens); experiment: Activation of SIRT1 (unknown origin) expressed in human HEK293 cells assessed as decrease in luciferase activity at 5 uM measured after 24 hrs by luciferase reporter gene assay; format: cell-based; details: filed as activator
[8] = system: C2C12; experiment: Cytotoxicity against mouse C2C12 myotubes assessed as cell viability at 10 to 40 uM measured after 24 hrs by MTT assay; format: toxicity, cell-based; details: c2c12, 24 h, dose 10-40 µM
[9] = target: T1, NAD-dependent protein deacetylase sirtuin-1 (Homo sapiens); experiment: Activation of SIRT1 (unknown origin) expressed in human HEK293 cells assessed as increase intracellular NAD+ level at 10 uM in presence of NAD+ as substrate incubated for 12 hrs by NAD+/NADH assay based fluorescence microplate reader; format: cell-based; details: filed as activator
[10] = system: C2C12; experiment: Effect on AMPK in mouse C2C12 myotubes assessed as increase in AMPK-alpha phosphorylation at Thr172 at 5 to 10 uM measured after 1 hrs by western blot analysis; format: functional, cell-based; details: dose 5-10 µM
[11] = target: T1, NAD-dependent protein deacetylase sirtuin-1 (Homo sapiens); experiment: Activation of SIRT1 (unknown origin) expressed in human HEK293 cells assessed as increase in deacetylase activity from 1.25 to 20 uM measured after 24 hrs by luciferase reporter gene assay; format: cell-based; details: filed as activator, dose 1.25-20 µM

Structure (SMILES)	Activity [2]	Activity [3]	further results
NC(=O)c1ncn([C@@H]2O[C@H](CO)[C@@H](O)[C@H]2O)c1N	–	–	Activity [1]: Active
O=c1c(O)c(-c2cc(O)c(O)c(O)c2)oc2c3c(cc(O)c12)O[C@H](c1ccc(O)cc1)[C@H]3c1cc(O)cc(O)c1	Non-Toxic	–	–
O=c1c(O)c(-c2ccc(O)cc2)oc2c(-c3cc(/C=C/c4cc(O)cc(O)c4)ccc3O)c(O)cc(O)c12	Non-Toxic	Active	–
O=c1c(O)c(-c2ccc(O)cc2)oc2cc3c(c(O)c12)[C@@H](c1cc(O)cc(O)c1)[C@@H](c1ccc(O)cc1)O3	Non-Toxic	–	–
O=c1c(O)c(-c2ccc(O)c(O)c2)oc2c(-c3cc(/C=C/c4cc(O)cc(O)c4)ccc3O)c(O)cc(O)c12	Non-Toxic	Active	–
O=c1c(O)c(-c2ccc(O)cc2)oc2c3c(cc(O)c12)O[C@@H](c1ccc(O)cc1)[C@H]3c1cc(O)cc(O)c1	Non-Toxic	–	–
Oc1ccc(/C=C/c2cc(O)cc(O)c2)cc1	–	–	Activity [4]: Dose-Dependent Effect; Activity [5]: Active
O=C1c2c(cc(O)c(-c3cc(/C=C/c4cc(O)cc(O)c4)ccc3O)c2O)O[C@H](c2ccc(O)c(O)c2)[C@H]1O	Non-Toxic	Active	–
O=C1c2c(O)cc3c(c2O[C@@H](c2ccc(O)cc2)[C@@H]1O)[C@H](c1cc(O)cc(O)c1)[C@@H](c1ccc(O)cc1)O3	Non-Toxic	–	–
O=c1c(O)c(-c2ccc(O)cc2)oc2cc(O)c(-c3cc(/C=C/c4cc(O)cc(O)c4)ccc3O)c(O)c12	Non-Toxic	Active	–
O=C1c2c(O)cc(O)c(-c3cc(/C=C/c4cc(O)cc(O)c4)ccc3O)c2O[C@H](c2ccc(O)cc2)[C@H]1O	Non-Toxic	Active	Activity [6]: Active; Activity [7]: Active; Activity [8]: Non-Toxic; Activity [9]: Active; Activity [10]: Active; Activity [11]: Dose-Dependent Effect
O=c1c(O)c(-c2ccc(O)cc2)oc2cc3c(c(O)c12)[C@@H](c1cc(O)cc(O)c1)[C@H](c1ccc(O)cc1)O3	Non-Toxic	–	–
O=c1c(O)c(-c2ccc(O)c(O)c2)oc2cc3c(c(O)c12)[C@@H](c1cc(O)cc(O)c1)[C@H](c1ccc(O)cc1)O3	Non-Toxic	–	–
